Data set [1] in a line: Cytotoxicity against human U937 cells assessed as cell viability at 100 uM after 48 hrs by WST-1 assay. Conditions: read-out: Activity. Format: cell-based, U-937.
Data set [2] is described as follows: Cytotoxicity against human U937 cells at 100 uM after 48 hrs by LDH assay. Format: cell-based. The note with it: u-937, 48 h.
Data set [3] deals with T1, Polyunsaturated fatty acid 5-lipoxygenase (Homo sapiens, UniProt P09917).
T1 sequence (P09917 whole entry): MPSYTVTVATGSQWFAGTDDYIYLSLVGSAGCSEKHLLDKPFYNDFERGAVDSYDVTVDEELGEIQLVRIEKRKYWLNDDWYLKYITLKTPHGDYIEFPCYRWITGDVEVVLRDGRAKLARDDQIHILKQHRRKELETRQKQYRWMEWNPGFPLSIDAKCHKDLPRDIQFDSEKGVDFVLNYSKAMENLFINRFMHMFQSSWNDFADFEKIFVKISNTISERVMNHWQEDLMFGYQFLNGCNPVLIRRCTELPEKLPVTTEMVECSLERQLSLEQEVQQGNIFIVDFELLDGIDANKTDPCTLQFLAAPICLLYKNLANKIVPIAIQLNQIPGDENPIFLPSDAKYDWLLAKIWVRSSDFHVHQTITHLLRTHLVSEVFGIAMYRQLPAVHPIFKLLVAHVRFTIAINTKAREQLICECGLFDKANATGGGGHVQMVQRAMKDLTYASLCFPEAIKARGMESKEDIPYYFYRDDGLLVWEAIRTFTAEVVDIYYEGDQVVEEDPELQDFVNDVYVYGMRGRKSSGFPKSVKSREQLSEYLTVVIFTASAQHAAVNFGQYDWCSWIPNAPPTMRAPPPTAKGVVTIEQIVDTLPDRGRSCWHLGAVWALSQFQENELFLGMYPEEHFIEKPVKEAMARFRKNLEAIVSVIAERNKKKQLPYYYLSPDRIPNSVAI
Description: Inhibition of 5-LO in human PMNL S100 extract using arachidonic acid as substrate incubated for 15 mins prior to substrate addition measured after 10 mins by HPLC analysis.

The target in data set [4] is T1, Polyunsaturated fatty acid 5-lipoxygenase. Description: Inhibition of 5-LO in human PMNL using arachidonic acid as substrate assessed as product formation incubated for 15 mins prior to substrate addition measured after 10 mins by HPLC analysis.
Data set [5] in a line: Solubility of the compound in DMSO at RT. The class given is physicochemical.
Data set [6] in a line: Solubility of the compound in PBS at pH 7.4 at RT. Format: physicochemical.

Converted amounts (≈) assume the structure as drawn.

Turning to `CCCCCC(O)c1cccc(OCc2ccc3ccccc3n2)c1` (stereo not given) [REV-5901], the viability at 48 h, 100 µM in data set [1] was less than 1%. The Activity in data set [2] was determined as 22.5%.
`COc1ccc(/C=C2\SC(c3ccc(C)cc3)N(C)C2=O)cc1` (stereo not given): the IC50 in data set [3] was more than 30000 nM; in data set [4], 940 nM.
Consider `Cc1ccc(C2=NC(=O)/C(=C/c3ccc(N4CCOCC4)cc3)S2)cc1`, for which the values for the IC50 in data set [3] and in data set [4] were 1070 nM and 3650 nM, respectively. The solubility in data set [5] amounted to 10 mM (≈ 3640 µg/mL); in data set [6], 10 µM (≈ 3.64 µg/mL).
For `Cc1ccc(C2=NC(=O)/C(=C/c3cccnc3)S2)cc1`, the IC50 in data set [3] turned out to be 280 nM; in data set [4], 1240 nM.
On the same counts, the results for `CC(=O)c1ccc(/C=C2\SC(c3ccc(C)cc3)=NC2=O)cc1` are 160 nM and 580 nM.
With `COc1ccc(C(=C2SC(c3ccc(C)cc3)=NC2=O)c2ccc(OC)cc2)cc1`, the IC50 in data set [3] was 6150 nM; in data set [4] it was 8550 nM.
In the case of `Cc1ccc(C2=NC(=O)/C(=C/c3ccc(OCC(=O)N4CCOCC4)cc3)S2)cc1`, the IC50 in data set [3] stood at 730 nM; in data set [4], 1660 nM. In addition, the solubility in data set [5] is 20 mM (≈ 8450 µg/mL); in data set [6] it was 50 µM (≈ 21.1 µg/mL).
Consider `Cc1ccc(C2=NC(=O)/C(=C/C34CC5CC(CC(C5)C3)C4)S2)cc1`, for which the IC50 is 120 nM in data set [3] and 410 nM in data set [4].
For the compound `COC(=O)c1ccc(/C=C2\SC(c3ccc(C)cc3)=NC2=O)cc1`, the IC50 turned out to be 160 nM in data set [3] and 690 nM in data set [4].
On to `Cc1ccc(C2=NC(=O)/C(=C/c3[nH]cnc3C)S2)cc1`, for which the IC50 in data set [3] was 6040 nM; in data set [4], 14900 nM.
On the same counts, the results for `COc1ccc(/C=C2\SC(c3ccncc3)=NC2=O)cc1` are 440 nM and 2990 nM.
As to `COc1ccc(/C=C2\N=C(c3ccc(C)cc3)NC2=O)cc1`, the values for the half-maximal inhibitory concentration (IC50) in data set [3] and in data set [4] were 7800 nM and 1950 nM, respectively.
Consider `Cc1ccc(C2=NC(=O)/C(=C/c3ccc(O)cc3)S2)cc1`, for which the IC50 in data set [3] turned out to be 330 nM; in data set [4] it was 1130 nM. The solubility is 50 mM (≈ 14800 µg/mL) in data set [5] and 30 µM (≈ 8.86 µg/mL) in data set [6].
As for `Cc1ccc(C2=NC(=O)/C(=C/c3cccs3)S2)cc1`, the figures for the IC50 in data set [3] and in data set [4] were 860 nM and 980 nM, respectively.
On to `COc1ccc(/C=C2/SC(c3cccc4ccccc34)=NC2=O)cc1`, for which the IC50 in data set [3] came out at 80 nM; in data set [4], 120 nM. Also, the solubility in data set [5] was determined as 10 mM (≈ 3450 µg/mL); in data set [6], 30 µM (≈ 10.4 µg/mL).
With `Cc1ccc(C2=NC(=O)/C(=C/c3ccc(S(C)(=O)=O)cc3)S2)cc1`, the IC50 was 190 nM in data set [3] and 5290 nM in data set [4].
For `COc1ccc(/N=C2\SC(c3ccc(C)cc3)=NC2=O)cc1` the same measures were 8220 nM and 10300 nM.
In the case of `Cc1ccc(C2=NC(=O)/C(=C/c3ncc[nH]3)S2)cc1`, the IC50 is 2690 nM in data set [3] and 6090 nM in data set [4].
For `COc1ccc(/C=C2\C=C(c3ccc(C)cc3)OC2=O)cc1` the same measures were more than 30000 nM and more than 30000 nM.
On the same counts, the results for `Cc1ccc(C2=NC(=O)/C(=C/c3ccncc3)S2)cc1` are 330 nM and 2190 nM.
With `COc1ccc(-c2sc(-c3ccc(C)cc3)nc2O)cc1`, the IC50 worked out at 170 nM in data set [3] and 430 nM in data set [4]. In addition, the results for the solubility in data set [5] and in data set [6] were 50 mM (≈ 14900 µg/mL) and 50 µM (≈ 14.9 µg/mL), respectively.
As to `Cc1ccc(C2=NC(=O)/C(=C/c3cccc(S(N)(=O)=O)c3)S2)cc1`, the IC50 in data set [3] is 250 nM; in data set [4], 1440 nM. Besides, the solubility in data set [5] came out at 30 mM (≈ 10800 µg/mL); in data set [6] it was 80 µM (≈ 28.7 µg/mL).
Consider `COc1ccc(/C=C2\SC(c3ccc[n+](C)c3)=NC2=O)cc1`, for which the IC50 in data set [3] was 4620 nM; in data set [4], more than 30000 nM.
For `CC(c1cc2ccccc2s1)N(O)C(N)=O` (stereo not given) [ZILEUTON], the viability at 48 h, 100 µM in data set [1] came to 86.5%. In data set [2], this compound showed an Activity of 1.5%.
Turning to `Cc1ccc(-c2nc(O)c(C=C3CCCCC3)s2)cc1`, the IC50 in data set [3] was found to be 350 nM; in data set [4], 790 nM.
Turning to `COc1ccc(/C=C2\S/C(=N/c3ccc(C)cc3)NC2=O)cc1`, the IC50 was more than 30000 nM in data set [3] and 2900 nM in data set [4].
As to `COc1ccc(/C=C2\SC(c3cnccn3)=NC2=O)cc1`, the IC50 was found to be 300 nM in data set [3] and 2870 nM in data set [4].
As to `COc1ccc(/C=C2/SC(=S)N(c3ccc(C)cc3)C2=O)cc1`, the IC50 in data set [3] and in data set [4] was more than 30000 nM in each case.
Turning to `Cc1ccc(C2=NC(=O)/C(=C/c3ccc(OC(=O)N4CCOCC4)cc3)S2)cc1`, the IC50 in data set [3] is 330 nM; in data set [4], 740 nM. The solubility in data set [5] is 10 mM (≈ 4080 µg/mL); in data set [6] it was 50 µM (≈ 20.4 µg/mL).
`Cc1ccc(C2=NC(=O)/C(=C/c3ccc(C(=O)O)cc3)S2)cc1`: the results for the IC50 in data set [3] and in data set [4] were 1460 nM and 8360 nM, respectively.
In the case of `Cc1ccc(C2=NC(=O)/C(=C/c3ccc(OCCN4CCOCC4)cc3)S2)cc1`, the concentration for half-maximal inhibition (IC50) worked out at 520 nM in data set [3] and 2330 nM in data set [4]. Also, the solubility came out at 10 mM (≈ 4090 µg/mL) in data set [5] and 30 µM (≈ 12.3 µg/mL) in data set [6].
In the case of `Cc1ccc(C2=NC(=O)/C(=C/c3c[nH]c4ccccc34)S2)cc1`, the figures for the IC50 in data set [3] and in data set [4] were more than 3000 nM and 1070 nM, respectively.
In the case of `COc1ccc(/C=C2\SC(c3cccnc3)=NC2=O)cc1`, the IC50 in data set [3] amounted to 960 nM; in data set [4], 2660 nM.
On the same counts, the results for `COc1ccc(/C=C2\N=C(c3ccc(C)cc3)OC2=O)cc1` are more than 30000 nM and more than 30000 nM.
In the case of `Cc1ccc(C2=NC(=O)/C(=C/c3ccc(N)cc3)S2)cc1`, the half-inhibitory concentration (IC50) in data set [3] turned out to be 580 nM; in data set [4], 1330 nM.
Consider `COc1ccc(Cc2sc(-c3ccc(C)cc3)nc2O)cc1`, for which the IC50 in data set [3] was found to be 200 nM; in data set [4], 720 nM. In addition, the values for the solubility in data set [5] and in data set [6] were 100 mM (≈ 31100 µg/mL) and 80 µM (≈ 24.9 µg/mL), respectively.
Turning to `COc1ccc(NC2(OC)SC(c3ccc(C)cc3)=NC2=O)cc1` (stereo not given), the IC50 in data set [3] and in data set [4] was more than 30000 nM throughout.
Consider `COC1CCC(=Cc2sc(-c3ccc(C)cc3)nc2O)CC1` (stereo not given), for which the IC50 is 590 nM in data set [3] and 1560 nM in data set [4].
Consider `Cc1ccc(C2=NC(=O)/C(=C/c3ccc[nH]3)S2)cc1`, for which the IC50 in data set [3] came out at 8020 nM; in data set [4] it was 1580 nM.
In the case of `COC(=O)/C=C/c1ccc(/C=C2\SC(c3ccc(C)cc3)=NC2=O)cc1`, the IC50 was found to be 180 nM in data set [3] and 3610 nM in data set [4].
For `COc1ccc(-c2sc(-c3ccc(C)cc3)nc2C)cc1` the same measures were more than 30000 nM and 1500 nM.
Regarding `COc1ccc(/C=C2/SC(c3ccc(Cl)cc3)=NC2=O)cc1`, the IC50 in data set [3] was determined as 80 nM; in data set [4] it was 280 nM. Further, the solubility was determined as 15 mM (≈ 4950 µg/mL) in data set [5] and 30 µM (≈ 9.89 µg/mL) in data set [6].
For `COc1ccc(/C=C2\OC(c3ccc(C)cc3)=NC2=O)cc1`, the IC50 in data set [3] stood at 1860 nM; in data set [4], 10500 nM.
As for `COc1ccc(/C=C/C=C2\SC(c3ccc(C)cc3)=NC2=O)cc1`, the IC50 was determined as 350 nM in data set [3] and 220 nM in data set [4].
Take `COc1ccc(/C=C2\C=C(c3ccc(C)cc3)NC2=O)cc1`: the IC50 in data set [3] was determined as 11800 nM; in data set [4], 10300 nM.

The values above are taken from ChEMBL document CHEMBL3351894, “Development and evaluation of ST-1829 based on 5-benzylidene-2-phenylthiazolones as promising agent for anti-leukotriene therapy” (Eur J Med Chem, 2015).
